Source: publication PMC11274943, “Discovery of Benzisothiazolone Derivatives as Bifunctional Inhibitors of HIV-1 Reverse Transcriptase DNA Polymerase and Ribonuclease H Activities” (Biomolecules, 2024)

Experiments:
[1] = molecular target: T1, WT HIV-1 RT RNase H activity (Human immunodeficiency virus type 1 group M subtype B, UniProt P04585); test: biochemical; format: biochemical; details: for RNase H Activity IC50: WT RT, mean ± SD, at least three independent experiments
T1 construct: made in house
Protocol: (§1) WT (wild-type) RT, and RTs harboring the NNRTI-resistant mutations K101E, K103N, Y181C, Y188C, G190A and P236L, were overexpressed and purified to homogeneity as described previously. The RT concentration was determined spectrophotometrically at 280 nm using an absorbance coefficient of 260,450 M^−1·cm^−1. The 7-hydroxy tropolone derivative 19,616 (2,7-dihydroxy 2,4,6-cyclo-heptatrien-1-one) was purchased from Molecular Diversity Preservation International (Basel, Switzerland). […] The benzisothiazolone derivatives were procured from MolPort (New York, NY, USA) or Enamine (Kyiv, Ukraine). The DNA and RNA oligonucleotides were synthesized and purified by Integrated DNA Technologies (Coralville, IA, USA). All other reagents were of the highest quality available and were used without further purification.
Compounds were screened at a final concentration of 10 µM in 1× assay buffer (50 mM Tris pH 8.0, 60 mM KCl, 5 mM MgCl2) containing 1% DMSO in 384-well Greiner black polystyrene plates (VWR catalog # 82051-272). A total of 10 µL of intermediate diluted compounds (100 µM in 10% DMSO) was transferred into assay plates using the Evolution-3 (EP3) (Perkin Elmer, Waltham, MA, USA) automated liquid handling platform outfitted with a 384-well transfer head. A total of 40 µL of RT-RNase H enzyme (60 ng per well) were then dispensed into each well using the Titertek MAP-C2 reagent dispenser platform (Huntsville, AL, USA). A total of 50 µL of the RNA/DNA duplex (140 nM) substrate was then dispensed into each well using the MAP-C2 dispenser, and the assay plates were then incubated at room temperature for 20 min. After 20 min, the assay was terminated by the addition of 10 µL of 1 M EDTA pH 9.0 stop buffer. Relative fluorescent unit (RFU) signals, Excitation 490 nm and Emission 528 nm (Cutoff 515 nm), were captured on the Spectromax M5e plate reader (Molecular Devices, Menlo, CA, USA). […] The template also calculated the plate signal-to-background (S:B) ratios (mean maximum signal/mean minimum signal) and Z’-factor coefficient HTS performance statistics.
(§2) The following RNA/DNA T/P substrate was used in the present study: an 18-nucleotide RNA template (RNA-18T: 5′-[…]-3′) was annealed to an 18-nucleotide primer (DNA-18T: 5′-[…]-3′), as described previously. Fluorescein and IowaBlack FQTM were covalently attached to the 3′- and 5′-ter-mini of the RNA and DNA oligonucleotides, respectively.
(§3) The FRET-based RNase H cleavage assays were carried out as described previously. Fluorescence was measured with a SpectraMax M2 microplate spectrofluorometer (Molecular Devices, San Jose, CA, USA) using an excitation wavelength of 490 nm and an emission wavelength of 528 nm. Data were analyzed using SoftMax Pro software, version 4.7.1 (Molecular Devices, San Jose, CA, USA).
We implemented a rapid, robust and inexpensive fluorescence-based 384-well assay for the measurement of RT RNase H activity, previously described by Parniak et al.. The substrate comprises an 18-nucleotide 3′-fluorescein-labeled heteropolymeric RNA annealed to a complementary 5′-dabcyl-modified DNA. RT cleaves the RNA strand of this substrate close to the 3′ end, promoting the dissociation of the fluorescein-labeled RNA fragment and generating a detectable fluorescent signal. We used this HTS assay to screen 65,239 compounds at a final concentration of 10 µM.

[2] = molecular target: T2, WT HIV-1 RT DNA-dependent DNA polymerase activity (Human immunodeficiency virus type 1 group M subtype B, UniProt P04585); test: biochemical; format: biochemical; details: for Polymerase Activity IC50 (DNA Polymerase): WT RT, mean ± SD, at least three independent experiments
T2 construct: made in house
Protocol: as §1
DDDP assays were also performed using a QuantiFluor ONE based spectrophotometric assay to detect double-stranded DNA synthesized by recombinant HIV-1 RT [14]. The reaction contained 40 nM of a template/primer comprising a 200 nt DNA template (5′-[…] […]-[…]-[…] […] […]-3′) annealed to an 18-nucleotide DNA primer (5′-[…]-3′), and a mix of 50 mM Tris-HCl pH 7.8, 50 mM NaCl, 10 mM MgCl2 and 50 µM dNTP. The reactions were stopped after 45 min by adding the detection reagent containing 1 × Quant-Fluor One (Promega) and 12.5 mM ethylenediaminetet-raacetic acid; the samples were transferred to a 96-well black plate, and fluorescence was measured at excitation/emission (490/535 nm).

[3] = system: K101E HIV-1 RT RNase H activity; test: FRET-based RT RNase H cleavage assay, K101E RT; format: biochemical; details: K101E RT; fold resistance IC50 mutant/IC50 WT
Protocol: (§4) WT (wild-type) RT, and RTs harboring the NNRTI-resistant mutations K101E, K103N, Y181C, Y188C, G190A and P236L, were overexpressed and purified to homogeneity as described previously. The RT concentration was determined spectrophotometrically at 280 nm using an absorbance coefficient of 260,450 M^−1·cm^−1. The 7-hydroxy tropolone derivative 19,616 (2,7-dihydroxy 2,4,6-cyclo-heptatrien-1-one) was purchased from Molecular Diversity Preservation International (Basel, Switzerland). Nevirapine was purchased from Selleckchem (Houston, TX, USA). The benzisothiazolone derivatives were procured from MolPort (New York, NY, USA) or Enamine (Kyiv, Ukraine). The DNA and RNA oligonucleotides were synthesized and purified by Integrated DNA Technologies (Coralville, IA, USA). All other reagents were of the highest quality available and were used without further purification.
as §2, §3

[4] = molecular target: T3, K101E HIV-1 RT RNase H activity (Human immunodeficiency virus type 1 group M subtype B, UniProt P04585, K688E); test: FRET-based RT RNase H cleavage assay, K101E RT; format: biochemical
T3 construct: made in house
Protocol: as §4, §2, §3

[5] = system: Y181C HIV-1 RT RNase H activity; test: FRET-based RT RNase H cleavage assay, Y181C RT; format: biochemical; details: Y181C RT; fold resistance IC50 mutant/IC50 WT
Protocol: as §4, §2, §3

[6] = molecular target: T4, Y181C HIV-1 RT RNase H activity (Human immunodeficiency virus type 1 group M subtype B, UniProt P04585, Y768C); test: FRET-based RT RNase H cleavage assay, Y181C RT; format: biochemical
T4 construct: made in house
Protocol: as §4, §2, §3

[7] = system: Y188C HIV-1 RT RNase H activity; test: FRET-based RT RNase H cleavage assay, Y188C RT; format: biochemical; details: Y188C RT; fold resistance IC50 mutant/IC50 WT
Protocol: as §4, §2, §3

[8] = molecular target: T5, Y188C HIV-1 RT RNase H activity (Human immunodeficiency virus type 1 group M subtype B, UniProt P04585, Y775C); test: FRET-based RT RNase H cleavage assay, Y188C RT; format: biochemical
T5 construct: made in house
Protocol: as §4, §2, §3

[9] = system: G190A HIV-1 RT RNase H activity; test: FRET-based RT RNase H cleavage assay, G190A RT; format: biochemical; details: G190A RT; fold resistance IC50 mutant/IC50 WT
Protocol: as §4, §2, §3

[10] = molecular target: T6, G190A HIV-1 RT RNase H activity (Human immunodeficiency virus type 1 group M subtype B, UniProt P04585, G777A); test: FRET-based RT RNase H cleavage assay, G190A RT; format: biochemical
T6 construct: made in house
Protocol: as §4, §2, §3

[11] = molecular target: T7, K103N HIV-1 RT RNase H activity (Human immunodeficiency virus type 1 group M subtype B, UniProt P04585, K690N); test: FRET-based RT RNase H cleavage assay, K103N RT; format: biochemical
T7 construct: made in house
Protocol: as §4, §2, §3

[12] = system: K103N HIV-1 RT RNase H activity; test: FRET-based RT RNase H cleavage assay, K103N RT; format: biochemical; details: K103N RT; fold resistance IC50 mutant/IC50 WT
Protocol: as §4, §2, §3

[13] = system: P236L HIV-1 RT RNase H activity; test: FRET-based RT RNase H cleavage assay, P236L RT; format: biochemical; details: P236L RT; fold resistance IC50 mutant/IC50 WT
Protocol: as §4, §2, §3

[14] = molecular target: T8, P236L HIV-1 RT RNase H activity (Human immunodeficiency virus type 1 group M subtype B, UniProt P04585, P823L); test: FRET-based RT RNase H cleavage assay, P236L RT; format: biochemical
T8 construct: made in house
Protocol: as §4, §2, §3

HIV-1 = test: Antiviral activity (HIV-1 replication) in TZM-bl cells; format: cell-based; details: Human immunodeficiency virus 1, mean ± SD
Protocol: The genes for Y181C, Y181I, Y181V and Y181F were cloned into HIV-1LAI. NNRTI susceptibility was determined in TZM-bl cells, as described previously.
(§5) Next, we re-purchased 10 hit compounds with IC50 values < 1.0 µM for the inhibition of RT RNase H activity that were commercially available in sufficient quantities for further analysis. We assessed their antiviral activity and cytotoxicity in TZM-bl cells, as described previously.

[15] = Cytotoxicity in TZM-bl cells; format: cell-based; details: human, TZM-bl cell death
Protocol: as §5

**Q.** For `O=S(=O)(c1cccc(-c2cn3cc(Cl)ccc3n2)c1)N1CCOCC1` [Compound 7], which IC50 [1] is on record?
**A.** > 81 µM

**Q.** And the IC50 [2]?
**A.** > 81 µM

**Q.** What does the source list for `O=c1c(O)ccccc1O` [Compound 19619, 2,7-dihydroxy 2,4,6-cyclo-heptatrien-1-one, reference compound]?
**A.** Inhibition of RT RNase H Activity Fold-R [3]: 0.9; IC50 [4]: 8.1 ± 1.7 µM; Inhibition of RT RNase H Activity Fold-R [5]: 1.4; IC50 [6]: 12.1 ± 1.6 µM; IC50 [1]: 8.7 ± 3 µM; Inhibition of RT RNase H Activity Fold-R [7]: 0.6; IC50 [8]: 5.5 ± 2.4 µM; Inhibition of RT RNase H Activity Fold-R [9]: 0.8; IC50 [10]: 7.1 ± 1.9 µM; IC50 [11]: 9.4 ± 0.9 µM; Inhibition of RT RNase H Activity Fold-R [12]: 1.1; Inhibition of RT RNase H Activity Fold-R [13]: 1.0; IC50 [14]: 8.9 ± 2.5 µM

**Q.** Which results are given for `O=c1c2ccccc2sn1-c1ccc(S(=O)(=O)N2CCCC2)cc1` [Compound 5]?
**A.** IC50 [1]: 15.4 ± 9.2 µM; RNase H Activity IC50 [1]: modest activity; IC50 [2]: 25 ± 25 µM; Polymerase Activity IC50 (DNA Polymerase) [2]: modest activity

**Q.** For `O=S(=O)(c1cc(-c2nc3ccccc3s2)ccc1Cl)N1CCOCC1` [Compound 10], which IC50 [1] is on record?
**A.** > 81 µM

**Q.** What about the IC50 [2] of the same compound?
**A.** > 81 µM

**Q.** Which results are given for `Cc1ccc(-c2nc3ccccc3s2)cc1S(=O)(=O)N1CCOCC1` [Compound 9]?
**A.** IC50 [1]: > 81 µM; IC50 [2]: > 81 µM

**Q.** Which IC50 [1] does the source give for `CC1CN(S(=O)(=O)c2cccc(-c3cn4ccccc4n3)c2)CC(C)O1` (stereo not drawn) [Compound 8] here?
**A.** > 81 µM

**Q.** What about the IC50 [2] of the same compound?
**A.** > 81 µM

**Q.** With `Cn1sc2ccccc2c1=O` [Compound 3, 2-methylbenzo[d]isothiazol-3(2H)-one] as the compound, how does the EC50 (HIV-1) read?
**A.** 28.4 ± 12.3 µM

**Q.** And the “Inhibition of RT RNase H Activity Fold-R” value [3]?
**A.** 0.9

**Q.** What about the IC50 [4] of the same compound?
**A.** 2.2 ± 0.3 µM

**Q.** And the “Inhibition of RT RNase H Activity Fold-R” value [5]?
**A.** 0.8

**Q.** What about the IC50 [6] of the same compound?
**A.** 2.1 ± 0.3 µM

**Q.** What about the IC50 [1] of the same compound?
**A.** 2.5 ± 0.2 µM

**Q.** What about the “Inhibition of RT RNase H Activity Fold-R” value [7] of the same compound?
**A.** 2.3

**Q.** What about the IC50 [8] of the same compound?
**A.** 5.7 ± 1.2 µM

**Q.** And the CC50 [15]?
**A.** ≥ 100 µM

**Q.** What about the “Inhibition of RT RNase H Activity Fold-R” value [9] of the same compound?
**A.** 1.0

**Q.** And the IC50 [10]?
**A.** 2.4 ± 0.4 µM

**Q.** What about the IC50 [11] of the same compound?
**A.** 2.4 ± 0.2 µM

**Q.** What about the “Inhibition of RT RNase H Activity Fold-R” value [12] of the same compound?
**A.** 1.0

**Q.** What about the “Inhibition of RT RNase H Activity Fold-R” value [13] of the same compound?
**A.** 0.9

**Q.** And the IC50 [14]?
**A.** 2.2 ± 0.2 µM

**Q.** And the IC50 [2]?
**A.** > 81 µM

**Q.** And the “Polymerase Activity IC50 (DNA Polymerase)” value [2]?
**A.** completely inactive

**Q.** What does the source list for `O=S(=O)(c1cccc(-c2nc3ccccc3s2)c1)N1CCCC1` [Compound 11]?
**A.** IC50 [1]: > 81 µM; IC50 [2]: 62 ± 38 µM

**Q.** For `O=c1c2ccccc2sn1-c1ccc(S(=O)(=O)N2CCCCC2)cc1` [Compound 6], which IC50 [1] is on record?
**A.** 39.2 ± 21 µM

**Q.** What about the “RNase H Activity IC50” value [1] of the same compound?
**A.** modest activity

**Q.** And the IC50 [2]?
**A.** 12.2 ± 3.7 µM

**Q.** And the “Polymerase Activity IC50 (DNA Polymerase)” value [2]?
**A.** modest activity
